Earlier results on one molecule are cited in PMC8687831, “α-Amylase Inhibitory Activity of Catunaregam spinosa (Thunb.) Tirveng.: In Vitro and In Silico Studies” (BioMed Research International, 2021).

This series relates to streptozotocin-induced diabetic rats. Also on record: method as in PMID 21143769.

For the molecule `CC[C@H](CC[C@@H](C)[C@H]1CC[C@H]2[C@@H]3CC=C4C[C@@H](O)CC[C@]4(C)[C@H]3CC[C@]12C)C(C)C` [β-Sitosterol, β-sitosterol], the “effective to lower the blood glucose level” value is reported as 78-100%.
